“And” between values parts separate entries of the source, which are not always exact repeats. Equal entries are not always repeated. Where two headings read alike, the source gives them in different places.
Columns and labels:
parental Ba/F3 cells = assay: CellTiter-Glo cell viability assay; type: cell-based, murine
Ba/F3^myr-Akt1 cells = assay: CellTiter-Glo cell viability assay; conditions: for Log ratio EC50 [Akt] / EC50 [Akt], Akt1 / Akt2: cell viability assay Ba/F3 myr-Akt cells, log units
Ba/F3^myr-Akt2 cells = assay: CellTiter-Glo cell viability assay
Experimental: (§1) On day 0, cells were plated into white 384-well cell culture plates (Greiner Bio-One) using a Multidrop reagent dispenser (Thermo Fisher Scientific) at cell numbers that ensure linear and optimal luminescent signal intensity (Ba/F3myr-Akt1: 600 cells/well, Ba/F3myr-Akt2: 800 cells/well, Ba/F3myr-Akt3: 800 cells/well). […] Cell viability was analyzed on day 4 using the CellTiter-Glo Assay (Promega) as per the manufacturer’s instructions. […] All experimental points were measured in duplicates for each plate and were replicated in at least three plates.

Ba/F3^myr-Akt3 cells = assay: CellTiter-Glo cell viability assay; conditions: for Log ratio EC50 [Akt] / EC50 [Akt], Akt3 / Akt2: cell viability assay Ba/F3 myr-Akt cells, log units
Experimental: as §1

Akt1 [1] = molecular target: T1, Akt1 (Homo sapiens, UniProt P31749); assay: STK HTRF KinEASE activity-based assay (IC50); conditions: for Log ratio IC50 [Akt] / IC50 [Akt], Akt1 / Akt2: biochemical activity based assay, log units
T1 sequence (P31749 whole entry): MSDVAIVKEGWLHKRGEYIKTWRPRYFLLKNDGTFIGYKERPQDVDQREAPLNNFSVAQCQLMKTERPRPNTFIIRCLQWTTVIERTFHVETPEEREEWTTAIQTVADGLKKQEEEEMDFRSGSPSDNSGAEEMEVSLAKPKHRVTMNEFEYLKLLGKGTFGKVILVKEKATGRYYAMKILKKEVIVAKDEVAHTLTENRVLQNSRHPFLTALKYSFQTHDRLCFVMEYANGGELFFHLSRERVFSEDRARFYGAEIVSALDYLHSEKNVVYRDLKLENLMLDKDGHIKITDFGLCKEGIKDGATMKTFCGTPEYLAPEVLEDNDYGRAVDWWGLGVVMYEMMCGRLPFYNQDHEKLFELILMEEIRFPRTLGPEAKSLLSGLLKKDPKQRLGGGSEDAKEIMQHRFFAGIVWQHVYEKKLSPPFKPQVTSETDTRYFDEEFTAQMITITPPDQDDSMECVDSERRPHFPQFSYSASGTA

Akt2 [2] = molecular target: T2, Akt2 (Homo sapiens, UniProt P31751); assay: STK HTRF KinEASE activity-based assay (IC50)
T2 sequence (P31751 whole entry): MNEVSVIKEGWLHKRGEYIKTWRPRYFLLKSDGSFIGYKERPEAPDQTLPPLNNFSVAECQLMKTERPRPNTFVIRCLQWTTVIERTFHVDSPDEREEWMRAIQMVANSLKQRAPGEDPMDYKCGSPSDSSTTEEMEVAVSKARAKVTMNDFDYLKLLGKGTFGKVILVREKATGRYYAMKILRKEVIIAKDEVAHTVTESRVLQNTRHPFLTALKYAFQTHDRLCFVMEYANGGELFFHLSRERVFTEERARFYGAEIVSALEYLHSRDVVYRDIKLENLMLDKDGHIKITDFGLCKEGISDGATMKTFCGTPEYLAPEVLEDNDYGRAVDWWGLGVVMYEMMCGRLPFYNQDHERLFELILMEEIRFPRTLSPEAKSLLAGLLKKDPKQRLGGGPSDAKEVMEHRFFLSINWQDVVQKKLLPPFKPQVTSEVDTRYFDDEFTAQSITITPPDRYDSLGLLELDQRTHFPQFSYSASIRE

Akt3 = Akt3 (Homo sapiens, UniProt Q9Y243); assay: STK HTRF KinEASE activity-based assay (IC50)
Akt3, sequence (Q9Y243 whole entry): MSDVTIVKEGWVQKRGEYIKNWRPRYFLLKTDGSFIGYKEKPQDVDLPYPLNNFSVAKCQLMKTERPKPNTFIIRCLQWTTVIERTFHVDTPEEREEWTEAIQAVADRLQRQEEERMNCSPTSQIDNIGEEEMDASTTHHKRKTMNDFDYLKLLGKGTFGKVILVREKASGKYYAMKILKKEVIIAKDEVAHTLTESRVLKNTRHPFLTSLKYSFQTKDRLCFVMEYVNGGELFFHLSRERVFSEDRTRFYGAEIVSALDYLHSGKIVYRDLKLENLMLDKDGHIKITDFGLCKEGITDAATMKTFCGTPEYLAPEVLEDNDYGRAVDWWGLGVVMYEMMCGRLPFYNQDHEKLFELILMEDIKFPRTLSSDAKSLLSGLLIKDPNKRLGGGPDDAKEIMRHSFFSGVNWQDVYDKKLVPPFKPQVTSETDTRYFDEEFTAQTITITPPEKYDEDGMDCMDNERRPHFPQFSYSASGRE

Akt2 [3] = molecular target: T2, Akt2; assay: PhosphoSens continuous fluorometric kinetic enzyme assay
Experimental: (§2) By addition of either 8 nM Akt1, 2 nM Akt2, or 5 nM Akt3 (final concentrations) the reactions were initiated. […] Afterwards the kobs-values were plotted versus the inhibitor concentrations [I] and then fit to the following hyperbolic Eq.

Akt1 [4] = molecular target: T1, Akt1; assay: as above
Experimental: as §2

[5] = Mus musculus, BaF3, parental cells, single replicates, read-out: CTG BaF3, individual determinations
[6] = parental cells, single replicates, read-out: CTG BaF3, individual determinations
[7] = Mus musculus, read-out: CTG BaF3myr-Akt1, individual determinations, single replicates
[8] = read-out: CTG BaF3myr-Akt1, individual determinations, single replicates
[9] = Mus musculus, read-out: CTG BaF3myr-Akt2, Mean, mean of replicates
[10] = Mus musculus, read-out: CTG BaF3myr-Akt2, individual determinations, single replicates
[11] = read-out: CTG BaF3myr-Akt2, individual determinations, single replicates
[12] = Mus musculus, read-out: CTG BaF3myr-Akt3, Mean, mean of replicates
[13] = Mus musculus, read-out: CTG BaF3myr-Akt3, individual determinations, single replicates
[14] = read-out: CTG BaF3myr-Akt3, individual determinations, single replicates
[15] = HTRF IC50 Akt1, individual determinations, single replicates
[16] = IC50 Akt1, HTRF, ATP at KM, 1 h preincubation
[17] = HTRF IC50 Akt2, Mean, mean of replicates
[18] = HTRF IC50 Akt2, individual determinations, single replicates
[19] = IC50 Akt2, HTRF, ATP at KM, 1 h preincubation
[20] = HTRF IC50 Akt3, Mean, mean of replicates
[21] = HTRF IC50 Akt3, individual determinations, single replicates
[22] = IC50 Akt3, HTRF, ATP at KM, 1 h preincubation
[23] = Ki Akt2, Mean, mean of replicates
[24] = Ki Akt2, individual determinations, single replicates
[25] = read-out: kinact /Ki Akt2, individual determinations, single replicates
[26] = read-out: kinact Akt2, individual determinations, single replicates

| SMILES | EC50 (parental Ba/F3 cells; [5]) | EC50 (parental Ba/F3 cells; [6]) | EC50 (Ba/F3^myr-Akt1 cells; [7]) | Log ratio EC50 [Akt] / EC50 [Akt], Akt1 / Akt2 (Ba/F3^myr-Akt1 cells) | EC50 (Ba/F3^myr-Akt1 cells; [8]) | EC50 (Ba/F3^myr-Akt2 cells; [9]) | EC50 (Ba/F3^myr-Akt2 cells; [10]) | EC50 (Ba/F3^myr-Akt2 cells; [11]) | EC50 (Ba/F3^myr-Akt3 cells; [12]) | EC50 (Ba/F3^myr-Akt3 cells; [13]) | Log ratio EC50 [Akt] / EC50 [Akt], Akt3 / Akt2 (Ba/F3^myr-Akt3 cells) | EC50 (Ba/F3^myr-Akt3 cells; [14]) | IC50 (Akt1 [1]; [15]) | IC50 (Akt1 [1]; [16]) | Log ratio IC50 [Akt] / IC50 [Akt], Akt1 / Akt2 (Akt1 [1]) | IC50 (Akt2 [2]; [17]) | IC50 (Akt2 [2]; [18]) | IC50 (Akt2 [2]; [19]) | IC50 (Akt3; [20]) | IC50 (Akt3; [21]) | also measured |
| --- | --- | --- | --- | --- | --- | --- | --- | --- | --- | --- | --- | --- | --- | --- | --- | --- | --- | --- | --- | --- | --- |
| C=CC(=O)Nc1ccc2[nH]c(=O)n(C3CCN(Cc4ccc(-c5ncc(C(=O)NCC(C)C)cc5-c5ccccc5)cc4)CC3)c2c1 [compound 10] | 15300 nM | 19400 nM and > 30000 nM | > 30000 nM | 0.52 | 28800 nM and 21100 nM | 7990 nM | 7980 nM | 5410 nM and 9280 nM | 24300 nM | 25300 nM | -0.48 | 25700 nM and 21800 nM | 1890 nM and 1690 nM and 1560 nM | 1720 ± 166 nM | 1.26 | 93.7 nM | 92.4 nM and 89.8 nM and 98.9 nM | 94 ± 4 nM | 1560 nM | 1650 nM and 1470 nM and 1570 nM | IC50 (Akt1 [1]; HTRF IC50 Akt1, Mean, mean of replicates): 1720 nM; IC50 (Akt3; [22]): 1560 ± 75 nM; Ki (Akt2 [3]; Ki Akt2): 4 ± 1 nM; Ki (Akt2 [3]; [23]): 4.18 nM; Ki (Akt2 [3]; [24]): 5.1 nM and 4.1 nM and 3.3 nM; kinact/KI (Akt2 [3]; read-out: kinact /Ki Akt2): 25000 ± 5000 M⁻¹ s⁻¹; kinact/KI (Akt2 [3]; [25]): 27000 M⁻¹ s⁻¹; kinact (Akt2 [3]; read-out: kinact Akt2): 0.0001 s⁻¹; kinact (Akt2 [3]; read-out: kinact Akt2, Mean, mean of replicates): 0.0001 s⁻¹; kinact (Akt2 [3]; [26]): 0.000133 s⁻¹; kinact Akt2, individual determinations (Akt2 [3]; single replicates): 0.00457 min⁻¹ and 0.006 min⁻¹ |
| C=CC(=O)Nc1ccc2[nH]c(=O)n(C3CCN(Cc4ccc(-c5ncc(Cn6ccnc6)cc5-c5ccccc5)cc4)CC3)c2c1 [compound 11] | > 30000 nM | > 30000 nM | 28200 nM | 1.03 | 27.1 µM and > 30 µM (2×) | 2690 nM | 3180 nM | 2510 nM and 2370 nM | 18600 nM | 18300 nM | -0.84 | 13700 nM and 17700 nM and 24600 nM | 778 nM and 571 nM and 580 nM | 643 ± 95 nM | 0.93 | 76.1 nM | 78.2 nM and 61.8 nM and 88.3 nM | 76 ± 11 nM | 1890 nM | 1360 nM and 1740 nM and 2570 nM | EC50 (parental Ba/F3 cells; Mus musculus, BaF3, CTG, parental BaF3 cell line, read-out: EC50 BaF3): > 30000 nM; EC50 (parental Ba/F3 cells; Mus musculus, BaF3, parental cells, mean of replicates, read-out: CTG BaF3, Mean): > 30000 nM; IC50 (Akt3; [22]): 1890 ± 621 nM; Ki (Akt1 [4]; Ki Akt1): 9 ± 2 nM; kinact/KI (Akt1 [4]; read-out: kinact /Ki Akt1): 26000 ± 2000 M⁻¹ s⁻¹; kinact (Akt1 [4]; read-out: kinact Akt1): 0.0002 s⁻¹; Ki (Akt2 [3]; Ki Akt2): 11 ± 1 nM; Ki (Akt2 [3]; [23]): 10.2 nM; Ki (Akt2 [3]; [24]): 8.9 nM and 11.3 nM and 10.3 nM; kinact/KI (Akt2 [3]; read-out: kinact /Ki Akt2): 20000 ± 4000 M⁻¹ s⁻¹; kinact/KI (Akt2 [3]; read-out: kinact /Ki Akt2, Mean, mean of replicates): 20000 M⁻¹ s⁻¹; kinact/KI (Akt2 [3]; [25]): 25000 M⁻¹ s⁻¹; kinact (Akt2 [3]; read-out: kinact Akt2): 0.0002 s⁻¹; kinact (Akt2 [3]; [26]): 0.000217 s⁻¹; kinact Akt2, individual determinations (Akt2 [3]; single replicates): 0.013 min⁻¹ and 0.009 min⁻¹ |

From PMC8421423, “Cellular model system to dissect the isoform-selectivity of Akt inhibitors” (Nature Communications, 2021)
